Patent US4882349A, “Pyrrolacetic amides having antiinflammatory activity” (priority 1982, dated 1989)
Read-outs that look alike come from different tables or passages of the source. Each block holds one compound with its values, some of them ahead of it.

Assays:
solubility = format: physicochemical
gastric lesions = format: in vivo, male Wistar rats; settings: 4 consecutive days; for mean severity: scale 0 (no lesion) to 5 (perforations)
Procedure: Male Wistar rats weighing 180 g were randomized into groups of 10. Three doses of each compound were administered. One group received the vehicle alone (10 ml/kg b.w.). Each dose was given orally for four days consecutively and the rats were sacrificed on the fifth day for necropsy. The ulcerogenic effect was evaluated by the following scale:
(1) each haemorrhagic point at least 1 mm in diameter was scored as 1 lesion,
(2) haemorrhagic points less than 1 mm in diameter were scored in the following manner:
(c) 20 to 29=three lesions
By means of this scale it was possible to obtain the gastric damage index:
I=mean no. of lesions+mean of severity+% incidence/10

[1] = test system: carrageenin-induced oedema; assay: carrageenin-induced oedema test (anti-inflammatory activity); format: in vivo, albino male Wistar rats
Procedure: This effect was evaluated by means of an experimental model reproducing acute inflammation: for this purpose the carrageenin- induced oedema test was employed following the method described by C.
Albino male Wistar rats weighing 140-160 g were caged for 10 days at 22±1° C. and given a balanced diet and water ad libitum. Eighteen hours before the experiment the animals were randomized into groups of ten and fasted but with free access to water. Each dose was tested in three groups of rats. Each compound was given either orally, by gavage, or parenterally--intraperitoneal injection--administering as follows:
controls: 0.5% carboxymethylcellulose suspension in physiological saline, 10 ml/kg
treated: suspension of the compounds to be tested in the same vehicle and at the same volume (10 ml/kg) used for the controls at the doses specified below.
One hour after administration of the compounds and vehicle, in order to provoke the oedema for determining the protective effect of the substances under examination, each rat received, by subcutaneous injection into the plantar surface of the left paw, 0.1 ml of 1% sterile carrageenin suspension.

Rats = settings: rat, in vivo
[2] = test system: phenyl-p-quinone-induced writhing (abdominal contractions); assay: phenylquinone-induced writhing test (analgesic activity), compound given 30 min before phenyl-p-quinone; format: in vivo, male Wistar rats
Procedure: Male Wistar rats weighing 110±5 g were caged for 10 days at 22±1° C. and given a balanced diet with free access to water. Twenty-four hours before the experiment the animals were randomized into groups of 10 and fasted for 14 hours but with free access to water. Each dose was tested in 3 groups of rats. Thirty minutes following administration either orally or parenterally of the products to be tested and the vehicle alone (0.5% carboxymethyl-cellulose in physiological saline) in the control animals, each rat was given 2 ml of a 5% absolute ethanol aqueous solution containing 0.36% of phenyl-p-quinone (Sigma Chemical Company) in order to provoke writhings. Fifteen minutes after administration of phenyl-p-quinone the number of contractions were counted for 20 minutes. The inhibiting effect of the compounds under examination on the abdominal contractions induced by phenyl-p-quinone was calculated by the following formula: % protection= [formula]
Table V lists the tested compounds, doses, routes of administration and their efficacy expressed as percentage of protection, taking into account that phenyl-p-quinone was administered thirty minutes after the compounds.

[3] = test system: brewers' yeast-induced hyperthermia; assay: antipyretic activity, brewers' yeast-induced hyperthermia; format: in vivo, albino male Wistar rats
Procedure: The animals were caged under the same conditions as those described in the preceding tests. Five hours following […], determined by a rectal probe connected to a YSI thermometer (73 ATP model, Yellow Springs Instrument Company) were selected for the experiment. The animals were then randomized into groups of 10 and the compounds under examination and the vehicle were administered via the oral and parenteral routes testing each dose in two groups. Body temperature was determined at one, two and three hours after administration of the substances. […]

Mice = settings: mouse, in vivo

- Solubility (solubility): soluble in the usual organic solvents
SMILES: CCOC(=O)CNC(=O)Cc1ccc(C(=O)c2ccc(C)cc2)n1C [Compound 1-b, 1-methyl-5-p-toluoylpyrrole-2-acetamidoacetic acid ethyl ester]

SMILES: Cc1ccc(C(=O)c2ccc(CC(=O)NNCC(=O)N3CCN(C)CC3)n2C)cc1 [Compound 1-o, 1-methyl-5-p-toluoylpyrrole-2-acetic acid-2 [N-(4-methyl-1-piperazinyl)acetamide] hydrazide]
- mean no. of lesions (gastric lesions; 50 mg/Kg orally): 1
- gastric damage index (gastric lesions; 50 mg/Kg orally, I=mean no. of lesions+mean of severity+% incidence/10): 9
- mean severity (gastric lesions; 50 mg/Kg orally): 1
- mean no. of lesions (gastric lesions; 100 mg/Kg orally): 2
- mean severity (gastric lesions; 100 mg/Kg orally): 1
- mean no. of lesions (gastric lesions; 200 mg/Kg orally): 2
- oedema % inhibition ([1]; 25 mg/Kg per os, 2 h): 37.1%
- oedema % inhibition ([1]; 25 mg/Kg per os, 4 h): 42.0%
- oedema % inhibition ([1]; 25 mg/Kg per os, 6 h): 44.0%
- oedema % inhibition ([1]; 25 mg/Kg per os, 24 h): 12.1%
- oedema % inhibition ([1]; 25 mg/Kg per os, 48 h): 0.0%
- oedema % inhibition ([1]; 25 mg/Kg per os, 72 h): 0.0%
- oedema % inhibition ([1]; 25 mg/Kg, Table IV (route not given), 2 h): 39.0%
- oedema % inhibition ([1]; 25 mg/Kg, Table IV (route not given), 4 h): 37.1%
- oedema % inhibition ([1]; 25 mg/Kg, Table IV (route not given), 6 h): 36.0%
- oedema % inhibition ([1]; 25 mg/Kg, Table IV (route not given), 24 h): 11.1%
- oedema % inhibition ([1]; 25 mg/Kg, Table IV (route not given), 48 h): 0.0%
- oedema % inhibition ([1]; 25 mg/Kg, Table IV (route not given), 72 h): 0.0%
- oedema % inhibition ([1]; 50 mg/Kg per os, 2 h): 49.2%
- oedema % inhibition ([1]; 50 mg/Kg per os, 4 h): 50.1%
- oedema % inhibition ([1]; 50 mg/Kg per os, 6 h): 50.0%
- oedema % inhibition ([1]; 50 mg/Kg per os, 24 h): 22.1%
- oedema % inhibition ([1]; 50 mg/Kg per os, 48 h): 4.5%
- oedema % inhibition ([1]; 50 mg/Kg per os, 72 h): 0.0%
- oedema % inhibition ([1]; 50 mg/Kg, Table IV (route not given), 2 h): 52.1%
- oedema % inhibition ([1]; 50 mg/Kg, Table IV (route not given), 4 h): 55.0%
- oedema % inhibition ([1]; 50 mg/Kg, Table IV (route not given), 6 h): 43.0%
- oedema % inhibition ([1]; 50 mg/Kg, Table IV (route not given), 24 h): 17.9%
- oedema % inhibition ([1]; 50 mg/Kg, Table IV (route not given), 48 h): 0.0%
- oedema % inhibition ([1]; 50 mg/Kg, Table IV (route not given), 72 h): 0.0%
- oedema % inhibition ([1]; 100 mg/Kg per os, 2 h): 70.1%
- oedema % inhibition ([1]; 100 mg/Kg per os, 4 h): 73.4%
- oedema % inhibition ([1]; 100 mg/Kg per os, 6 h): 77.5%
- oedema % inhibition ([1]; 100 mg/Kg per os, 24 h): 33.5%
- oedema % inhibition ([1]; 100 mg/Kg per os, 48 h): 8.6%
- oedema % inhibition ([1]; 100 mg/Kg per os, 72 h): 0.0%
- oedema % inhibition ([1]; 100 mg/Kg, Table IV (route not given), 2 h): 79.1%
- oedema % inhibition ([1]; 100 mg/Kg, Table IV (route not given), 4 h): 78.0%
- oedema % inhibition ([1]; 100 mg/Kg, Table IV (route not given), 6 h): 77.3%
- oedema % inhibition ([1]; 100 mg/Kg, Table IV (route not given), 24 h): 24.1%
- oedema % inhibition ([1]; 100 mg/Kg, Table IV (route not given), 48 h): 0.0%
- oedema % inhibition ([1]; 100 mg/Kg, Table IV (route not given), 72 h): 0.0%
- LD50 (Rats; ip): 700 mg/kg
- LD50 (Rats; po): 978 mg/kg
- % Protection ([2]; 5 mg/Kg i.p.): 35.1%
- % Protection ([2]; 5 mg/Kg per os): 29.3%
- % Protection ([2]; 10 mg/Kg i.p.): 63.9%
- % Protection ([2]; 10 mg/Kg per os): 60.4%
- % Protection ([2]; 20 mg/Kg i.p.): 87.0%
- % Protection ([2]; 20 mg/Kg per os): 86.2%
- % Temperature decrease ([3]; 50 mg/Kg i.p., 1 h): 13.0%
- % Temperature decrease ([3]; 50 mg/Kg i.p., 2 h): 27.5%
- % Temperature decrease ([3]; 50 mg/Kg i.p., 3 h): 39.6%
- % Temperature decrease ([3]; 50 mg/Kg per os, 1 h): 12.0%
- % Temperature decrease ([3]; 50 mg/Kg per os, 2 h): 23.1%
- % Temperature decrease ([3]; 50 mg/Kg per os, 3 h): 35.2%
- % Temperature decrease ([3]; 75 mg/Kg i.p., 1 h): 18.0%
- % Temperature decrease ([3]; 75 mg/Kg i.p., 2 h): 27.0%
- % Temperature decrease ([3]; 75 mg/Kg i.p., 3 h): 49.6%
- % Temperature decrease ([3]; 75 mg/Kg per os, 1 h): 16.0%
- % Temperature decrease ([3]; 75 mg/Kg per os, 2 h): 25.2%
- % Temperature decrease ([3]; 75 mg/Kg per os, 3 h): 40.2%
- % Temperature decrease ([3]; 100 mg/Kg i.p., 1 h): 30.1%
- % Temperature decrease ([3]; 100 mg/Kg i.p., 2 h): 45.0%
- % Temperature decrease ([3]; 100 mg/Kg i.p., 3 h): 62.1%
- % Temperature decrease ([3]; 100 mg/Kg per os, 1 h): 29.1%
- % Temperature decrease ([3]; 100 mg/Kg per os, 2 h): 33.7%
- % Temperature decrease ([3]; 100 mg/Kg per os, 3 h): 59.0%
- LD50 (Mice; ip): 590 mg/kg
- LD50 (Mice; po): 910 mg/kg

SMILES: COc1ccc2c(c1)c(CC(=O)O)c(C)n2C(=O)c1ccc(Cl)cc1 [Indomethacin, reference compound]
- oedema % inhibition ([1]; 2.5 mg/Kg per os, 2 h): 20.6%
- oedema % inhibition ([1]; 2.5 mg/Kg per os, 4 h): 33.7%
- oedema % inhibition ([1]; 2.5 mg/Kg per os, 6 h): 25.2%
- oedema % inhibition ([1]; 2.5 mg/Kg per os, 24 h): 6.0%
- oedema % inhibition ([1]; 2.5 mg/Kg per os, 48 h): 0.0%
- oedema % inhibition ([1]; 2.5 mg/Kg per os, 72 h): 0.0%
- oedema % inhibition ([1]; 2.5 mg/Kg, Table IV (route not given), 2 h): 25.7%
- oedema % inhibition ([1]; 2.5 mg/Kg, Table IV (route not given), 4 h): 38.0%
- oedema % inhibition ([1]; 2.5 mg/Kg, Table IV (route not given), 6 h): 30.0%
- oedema % inhibition ([1]; 2.5 mg/Kg, Table IV (route not given), 24 h): 5.0%
- oedema % inhibition ([1]; 2.5 mg/Kg, Table IV (route not given), 48 h): 0.0%
- oedema % inhibition ([1]; 2.5 mg/Kg, Table IV (route not given), 72 h): 0.0%
- oedema % inhibition ([1]; 5 mg/Kg per os, 2 h): 34.3%
- oedema % inhibition ([1]; 5 mg/Kg per os, 4 h): 45.9%
- oedema % inhibition ([1]; 5 mg/Kg per os, 6 h): 42.1%
- oedema % inhibition ([1]; 5 mg/Kg per os, 24 h): 4.2%
- oedema % inhibition ([1]; 5 mg/Kg per os, 48 h): 0.0%
- oedema % inhibition ([1]; 5 mg/Kg per os, 72 h): 0.0%
- oedema % inhibition ([1]; 5 mg/Kg, Table IV (route not given), 2 h): 39.0%
- oedema % inhibition ([1]; 5 mg/Kg, Table IV (route not given), 4 h): 50.1%
- oedema % inhibition ([1]; 5 mg/Kg, Table IV (route not given), 6 h): 48.0%
- oedema % inhibition ([1]; 5 mg/Kg, Table IV (route not given), 24 h): 7.0%
- oedema % inhibition ([1]; 5 mg/Kg, Table IV (route not given), 48 h): 0.0%
- oedema % inhibition ([1]; 5 mg/Kg, Table IV (route not given), 72 h): 0.0%
- oedema % inhibition ([1]; 10 mg/Kg per os, 2 h): 66.4%
- oedema % inhibition ([1]; 10 mg/Kg per os, 4 h): 53.2%
- oedema % inhibition ([1]; 10 mg/Kg per os, 6 h): 51.6%
- oedema % inhibition ([1]; 10 mg/Kg per os, 24 h): 20.0%
- oedema % inhibition ([1]; 10 mg/Kg per os, 48 h): 6.0%
- oedema % inhibition ([1]; 10 mg/Kg per os, 72 h): 0.0%
- oedema % inhibition ([1]; 10 mg/Kg, Table IV (route not given), 2 h): 70.8%
- oedema % inhibition ([1]; 10 mg/Kg, Table IV (route not given), 4 h): 66.6%
- oedema % inhibition ([1]; 10 mg/Kg, Table IV (route not given), 6 h): 65.0%
- oedema % inhibition ([1]; 10 mg/Kg, Table IV (route not given), 24 h): 16.0%
- oedema % inhibition ([1]; 10 mg/Kg, Table IV (route not given), 48 h): 0.0%
- oedema % inhibition ([1]; 10 mg/Kg, Table IV (route not given), 72 h): 0.0%
